# Data as given in ChEMBL document CHEMBL5346899, “PKM2/PDK1 dual-targeted shikonin derivatives restore the sensitivity of EGFR-mutated NSCLC cells to gefitinib by remodeling glucose metabolism” (Eur J Med Chem, 2023).
# Calls of active or inactive are those of the source. The rule behind the calls is not given here.
# Legend:
# [1] = system: NCI-H1299; assay: Induction of apoptosis in human NCI-H1299 cells assessed as early apoptotic cells at 500 micromol/L incubated for 24 hrs by Annexin V-FITC/PI staining based analysis (reference value: 0.772%); format: functional; details: dose 500 µmol/L, at 500 µM
# [2] = system: NCI-H1299; assay: Induction of apoptosis in human NCI-H1299 cells assessed as live cells at 500 micromol/L incubated for 24 hrs in presence of AZD7545 by Annexin V-FITC/PI staining based analysis (reference value: 96.6%); format: functional; details: dose 500 µmol/L, at 500 µM
# [3] = system: NCI-H1299; assay: Induction of apoptosis in human NCI-H1299 cells assessed as dead cells at 500 micromol/L incubated for 24 hrs by Annexin V-FITC/PI staining based analysis (reference value: 0.021%); format: functional; details: dose 500 µmol/L, at 500 µM
# [4] = system: NCI-H1299; assay: Antitumor activity against human NCI-H1299 cells xenografted in mouse assessed as pathological damage to tumor tissue administered in presence of AZD7545; format: functional
# [5] = system: NCI-H1299; assay: Inhibition of glycolysis in human NCI-H1299 cells assessed as reduction in glucose consumption incubated for 24 hrs in presence of AZD7545 by colorimetric assay; format: functional, cell-based
# [6] = system: NCI-H1299; assay: Induction of apoptosis in human NCI-H1299 cells assessed as live cells at 500 micromol/L incubated for 24 hrs by Annexin V-FITC/PI staining based analysis (reference value: 96.6%); format: functional; details: dose 500 µmol/L, at 500 µM
# [7] = system: NCI-H1299; assay: Induction of apoptosis in human NCI-H1299 cells assessed as late apoptotic cells at 500 micromol/L incubated for 24 hrs by Annexin V-FITC/PI staining based analysis (reference value: 2.63%); format: functional; details: dose 500 µmol/L, at 500 µM
# [8] = system: NCI-H1299; assay: Inhibition of glycolysis in human NCI-H1299 cells assessed as reduction in lactate production incubated for 1 hrs in presence of AZD7545 by colorimetric assay; format: functional, cell-based
# [9] = system: NCI-H1299; assay: Induction of apoptosis in human NCI-H1299 cells assessed as early apoptotic cells at 500 micromol/L incubated for 24 hrs in presence of AZD7545 by Annexin V-FITC/PI staining based analysis (reference value: 0.772%); format: functional; details: dose 500 µmol/L, at 500 µM
# [10] = system: NCI-H1299; assay: Synergistic antiproliferative activity against human NCI-H1299 cells assessed as cell growth inhibition at 500 micromol/L incubated for 24 hrs in presence of AZD7545 by CCK-8 analysis; format: functional, cell-based; details: dose 500.0 µmol/L
# [11] = system: NCI-H1299; assay: Synergistic inhibition of NADPH production in human NCI-H1299 cells incubated for 2 hrs in presence of AZD7545 by NADP+/NADPH assay; format: functional, cell-based
# [12] = system: NCI-H1299; assay: Synergistic induction of oxidative phosphorylation in human NCI-H1299 cells assessed as increase in ATP production in presence of AZD7545 by luminescence based assay; format: functional, cell-based
# [13] = system: NCI-H1299; assay: Induction of apoptosis in human NCI-H1299 cells assessed as late apoptotic cells at 500 micromol/L incubated for 24 hrs in presence of AZD7545 by Annexin V-FITC/PI staining based analysis (reference value: 2.63%); format: functional; details: dose 500 µmol/L, at 500 µM
# [14] = system: NCI-H1299; assay: Induction of apoptosis in human NCI-H1299 cells assessed as dead cells at 500 micromol/L incubated for 24 hrs in presence of AZD7545 by Annexin V-FITC/PI staining based analysis (reference value: 0.021%); format: functional; details: dose 500 µmol/L, at 500 µM
smiles,measurement,setting,value
Cn1c2cc([S+](C)[O-])sc2c2cnn(Cc3cccc(N)c3)c(=O)c21 (centres undefined),Activity,[1],0.923%
same,Activity,[2],20.6%
same,Activity,[3],0%
same,Activity,[4],Active
same,inhibition,[5],Active
same,Activity,[6],97%
same,Activity,[7],2.11%
same,inhibition,[8],Active
same,Activity,[9],7.63%
same,Activity,[10],Active
same,inhibition,[11],Active
same,Activity,[12],Active
same,Activity,[13],71.7%
same,Activity,[14],0%
